Publication PMC7619385 (ACS infectious diseases, 2025)
Like-named read-outs stand apart in the source and are kept apart here.

What was measured:
NLuc::LmxCLK1 = NLuc::LmxCLK1 (Leishmania mexicana, UniProt E9AMP2); experiment: cell-based; type: cell-based; conditions: for Target occupancy Run 1 / Target occupancy Run 2 / Target occupancy Average: 10 µM compound, tracer SV366, promastigotes; for Target occupancy Average: mean of two experiments
Experimental: All compounds were tested at a fixed concentration of 10 µM to enable direct comparison of their target occupancy in live cells.
Serially diluted probes (5 µL) were added to 85 µL of cells in culture media or 85 µL of purified protein. Final well volumes were adjusted to 100 µL with sterile Opti-MEM™ I Reduced Serum Medium (Thermo-Scientific) – for wells containing cells; or Kinase Buffer - for wells containing purified protein. For tracer displacement assays, samples were prepared as above, but final volume was brought to 100 µL by addition of vehicle or serially-diluted test compounds. Final DMSO concentration in these assays was 1%. […] Light emissions at 460+10 nm (BRET donor) and at 610+20 nm (BRET acceptor) were sequentially recorded (integration time = 0.5 s, gain = 3600) using a luminometer (BMG LABTECH Clariostar or Biotek Synergy HT). BRET values are reported in milli-BRET (mBRET) units (mBU), obtained by dividing the acceptor luminescence by the donor luminescence and multiplying the result by a factor of 1,000. BRET values were converted to blank-corrected probe occupancies (%) according to equation [1]: (1) Probeoccupancy(%)=X−Z/Y−Z×100 where X = mBRET value in the presence of the test compound and the probe, Y = mBRET value in the presence of probe only, and Z = mBRET value in the absence of probe and test compound. […]

LmxCLK1 = target: T1, LmxCLK1 (Leishmania mexicana, UniProt E9AMP2); experiment: biochemical; type: binding; conditions: DSF, 10 µM compound
T1 sequence (E9AMP2 1-422): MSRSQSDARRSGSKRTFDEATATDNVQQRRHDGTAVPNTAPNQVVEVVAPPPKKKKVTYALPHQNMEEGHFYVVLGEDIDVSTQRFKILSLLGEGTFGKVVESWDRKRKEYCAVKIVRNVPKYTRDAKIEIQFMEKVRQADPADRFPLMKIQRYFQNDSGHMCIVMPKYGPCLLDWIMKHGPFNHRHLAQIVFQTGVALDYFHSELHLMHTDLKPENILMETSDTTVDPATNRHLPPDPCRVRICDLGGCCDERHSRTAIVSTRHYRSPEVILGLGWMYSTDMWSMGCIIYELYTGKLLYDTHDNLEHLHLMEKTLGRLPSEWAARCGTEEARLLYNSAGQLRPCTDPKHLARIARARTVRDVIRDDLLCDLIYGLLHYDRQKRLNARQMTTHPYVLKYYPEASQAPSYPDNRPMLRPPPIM

[1] = read-out: Target occupancy Average
[2] = read-out: Target occupancy Run 1
[3] = read-out: Target occupancy Run 2
[4] = 2 µM LmxCLK1, Run 1, read-out: ΔTm Run 1
[5] = 2 µM LmxCLK1, Run 2, read-out: ΔTm Run 2
[6] = 2 µM LmxCLK1, mean of two runs, read-out: ΔTm Average

## CNC(=O)c1cccc(-c2ccc3c(N4CCOC[C@@H]4C)nc(N4CCOC[C@@H]4C)nc3n2)c1 [AZD2014]
NLuc::LmxCLK1; [1]
  receptor occupancy at 10 µM: -1.4%
NLuc::LmxCLK1; [2]
  receptor occupancy at 10 µM: 8.9%
NLuc::LmxCLK1; [3]
  receptor occupancy at 10 µM: -11.6%
LmxCLK1; [4]
  ΔTm at 10 µM: 0.3 °C
LmxCLK1; [5]
  ΔTm at 10 µM: -0.3 °C
LmxCLK1; [6]
  ΔTm at 10 µM: 0 °C

## COc1cc(N2CCC(N)CC2)ccc1Nc1ncc(Cl)c(-c2c[nH]c3ccccc23)n1 [AZD3463]
NLuc::LmxCLK1
  Target occupancy Run 1: 8.0%
  Target occupancy Run 2: -12.9%
  Target occupancy Average: -2.4%
LmxCLK1; 2 µM LmxCLK1, Run 1
  ΔTm Run 1: 0.6 °C
LmxCLK1; 2 µM LmxCLK1, Run 2
  ΔTm Run 2: 0.3 °C
LmxCLK1; 2 µM LmxCLK1, mean of two runs
  ΔTm Average: 0.4 °C

## N#CC1(c2ccc(NC(=O)c3cccnc3NCc3ccncc3)cc2)CCCC1 [Apatinib]
NLuc::LmxCLK1; [1]
  receptor occupancy at 10 µM: -8.5%
NLuc::LmxCLK1; [2]
  receptor occupancy at 10 µM: -9.2%
NLuc::LmxCLK1; [3]
  receptor occupancy at 10 µM: -7.8%
LmxCLK1; [4]
  ΔTm at 10 µM: -0.2 °C
LmxCLK1; [5]
  ΔTm at 10 µM: -0.4 °C
LmxCLK1; [6]
  ΔTm at 10 µM: -0.3 °C

## C[C@H]1[C@H](C)CC[C@]2(C(=O)O)CC[C@]3(C)C(=CC[C@@H]4[C@@]5(C)C[C@@H](O)[C@H](O)[C@@](C)(CO)[C@@H]5CC[C@]43C)[C@H]12 [Asiatic Acid]
NLuc::LmxCLK1; [1]
  receptor occupancy at 10 µM: -4.4%
NLuc::LmxCLK1; [2]
  receptor occupancy at 10 µM: 8.6%
NLuc::LmxCLK1; [3]
  receptor occupancy at 10 µM: -17.4%
LmxCLK1; [4]
  ΔTm at 10 µM: 0.2 °C
LmxCLK1; [5]
  ΔTm at 10 µM: 0.1 °C
LmxCLK1; [6]
  ΔTm at 10 µM: 0.2 °C

## Cc1ccc(S(=O)(=O)/C=C/C#N)cc1 [BAY 11-7082]
NLuc::LmxCLK1
  Target occupancy Run 1: -17.1%
  Target occupancy Run 2: -14.7%
  Target occupancy Average: -15.9%
LmxCLK1; 2 µM LmxCLK1, Run 1
  ΔTm Run 1: -0.4 °C
LmxCLK1; 2 µM LmxCLK1, Run 2
  ΔTm Run 2: -0.2 °C
LmxCLK1; 2 µM LmxCLK1, mean of two runs
  ΔTm Average: -0.3 °C

## CN(C)Cc1cccc(N/C(=C2\C(=O)Nc3cc(C(N)=O)ccc32)c2ccccc2)c1 [BIX 02188]
NLuc::LmxCLK1; [1]
  receptor occupancy at 10 µM: -6.5%
NLuc::LmxCLK1; [2]
  receptor occupancy at 10 µM: 4.1%
NLuc::LmxCLK1; [3]
  receptor occupancy at 10 µM: -17%
LmxCLK1; [4]
  ΔTm at 10 µM: 0.1 °C
LmxCLK1; [5]
  ΔTm at 10 µM: -0.2 °C
LmxCLK1; [6]
  ΔTm at 10 µM: 0 °C

## Cc1ccc2nc(NCCN)c3ncc(C)n3c2c1 [BMS-345541]
NLuc::LmxCLK1; [1]
  receptor occupancy at 10 µM: -1.1%
NLuc::LmxCLK1; [2]
  receptor occupancy at 10 µM: 7.2%
NLuc::LmxCLK1; [3]
  receptor occupancy at 10 µM: -9.4%
LmxCLK1; [4]
  ΔTm at 10 µM: -0.1 °C
LmxCLK1; [5]
  ΔTm at 10 µM: -0.3 °C
LmxCLK1; [6]
  ΔTm at 10 µM: -0.2 °C

## COc1cc(Nc2c(C#N)cnc3cc(OCCCN4CCN(C)CC4)c(OC)cc23)c(Cl)cc1Cl [Bosutinib (SKI-606)]
NLuc::LmxCLK1
  Target occupancy Run 1: 7.7%
  Target occupancy Run 2: -36.0%
  Target occupancy Average: -14.2%
LmxCLK1; 2 µM LmxCLK1, Run 1
  ΔTm Run 1: 0.5 °C
LmxCLK1; 2 µM LmxCLK1, Run 2
  ΔTm Run 2: 0.6 °C
LmxCLK1; 2 µM LmxCLK1, mean of two runs
  ΔTm Average: 0.5 °C

## O=C(/C=C/c1ccc(O)c(O)c1)c1ccc(O)cc1O [Butein]
NLuc::LmxCLK1; [1]
  receptor occupancy at 10 µM: -10.8%
NLuc::LmxCLK1; [2]
  receptor occupancy at 10 µM: 3.3%
NLuc::LmxCLK1; [3]
  receptor occupancy at 10 µM: -25%
LmxCLK1; [4]
  ΔTm at 10 µM: 0 °C
LmxCLK1; [5]
  ΔTm at 10 µM: 0.4 °C
LmxCLK1; [6]
  ΔTm at 10 µM: 0.2 °C

## CC[C@H](Nc1ncnc2[nH]cnc12)c1nc2cccc(F)c2c(=O)n1-c1ccccc1 [CAL-101 (Idelalisib)]
NLuc::LmxCLK1
  Target occupancy Run 1: 0.2%
  Target occupancy Run 2: 0.1%
  Target occupancy Average: 0.1%
LmxCLK1; 2 µM LmxCLK1, Run 1
  ΔTm Run 1: -0.2 °C
LmxCLK1; 2 µM LmxCLK1, Run 2
  ΔTm Run 2: -0.2 °C
LmxCLK1; 2 µM LmxCLK1, mean of two runs
  ΔTm Average: -0.2 °C

## O=C1NC(=O)C(=Cc2ccc(-c3ccc(F)cc3)o2)S1 [CAY10505]
NLuc::LmxCLK1
  Target occupancy Run 1: -12.3%
  Target occupancy Run 2: 10.0%
  Target occupancy Average: -1.2%
LmxCLK1; 2 µM LmxCLK1, Run 1
  ΔTm Run 1: 0.1 °C
LmxCLK1; 2 µM LmxCLK1, Run 2
  ΔTm Run 2: -0.1 °C
LmxCLK1; 2 µM LmxCLK1, mean of two runs
  ΔTm Average: 0.0 °C

## COc1cc2ncnc(Oc3cccc(NC(=O)Nc4cc(C(C)(C)C(F)(F)F)on4)c3)c2cc1OC [CEP-32496]
NLuc::LmxCLK1; [1]
  receptor occupancy at 10 µM: -3.7%
NLuc::LmxCLK1; [2]
  receptor occupancy at 10 µM: -2.2%
NLuc::LmxCLK1; [3]
  receptor occupancy at 10 µM: -5.2%
LmxCLK1; [4]
  ΔTm at 10 µM: -0.4 °C
LmxCLK1; [5]
  ΔTm at 10 µM: -0.2 °C
LmxCLK1; [6]
  ΔTm at 10 µM: -0.3 °C

## C=CC(=O)Nc1cccc(Nc2nc(Nc3ccc(Oc4ccnc(C(=O)NC)c4)cc3)ncc2F)c1 [CNX-774]
NLuc::LmxCLK1
  Target occupancy Run 1: -4.4%
  Target occupancy Run 2: -9.3%
  Target occupancy Average: -6.8%
LmxCLK1; 2 µM LmxCLK1, Run 1
  ΔTm Run 1: -0.3 °C
LmxCLK1; 2 µM LmxCLK1, Run 2
  ΔTm Run 2: 0.0 °C
LmxCLK1; 2 µM LmxCLK1, mean of two runs
  ΔTm Average: -0.2 °C
